Laboratory results taken from patent EP0240392A1, “Compounds of the cyclophosphazene type, process for their preparation and pharmaceutical preparation containing them” (CENTRE NATIONAL DE LA RECHERCHE SCIENTIFIQUE (CNRS), priority 1986, dated 1987).
Marks after values point to notes of the source that are not given here.

Tested on: CARCINOME DU POUMON DE LEWIS
Test: Antitumour activity on Lewis lung carcinoma implanted i.m. in mice
Type: in vivo, souris C57Bl/6
Conditions: 60 mg/kg i.p. x j 1,5,9
Source text: Les tests d'activité antitumorale ont été conduits au sein du Screening and Pharmacology Group de l'E.O.R.T.C., implanté à l'Institut Mario Negri de Milan.
Ces essais ont été conduits soit en mono-injection à différentes doses au jour J+1 suivant la greffe de la tumeur, soit en poly-injections chroniques Q1D, soit en protocoles Q4D.

O=P1(N(CCCl)CCCl)NCCCO1 (stereo not shown) [CPA, Cyclophosphamide, reference compound]
Volume de la tumeur (d^2.D/2)cm^3 ± S.E. (jour 17): 0,57±0,16* cm^3
Volume de la tumeur (d^2.D/2)cm^3 ± S.E. (jour 20): 1,30±0,17* cm^3
Volume de la tumeur (d^2.D/2)cm^3 ± S.E. (jour 24): 3,03±0,25* cm^3
Poids moyen de la tumeur (g ± S.E.) (sacrifice jour 25): 4,14 ± 0,27 g
